Source: patent US20180370927A1, “MICROBIOCIDAL OXADIAZOLE DERIVATIVES” (SYNGENTA PARTICIPATIONS AG, priority 2015, published 2018)

Legend:
[1] = test system: Puccinia recondita f. Sp. Tritici; test: Puccinia recondita f. sp. tritici / wheat / leaf disc preventative (brown rust); type: in vivo; details: foliar, 200 ppm in the applied formulation, wheat leaf segments, preventative, assessed 7 to 9 days after application, read-out: disease control compared to untreated control leaf disks
Summary of the method: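 Wheat cv. Kanzler leaf segments on agar sprayed with formulated compound in water, inoculated with rust spores 1 day later. Incubated at 19° C, 75% rh, 12 h light/12 h dark; percent disease control versus untreated scored 7 to 9 days after application; tested at 200 ppm.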

[2] = test system: Puccinia recondita f. Sp. Tritici; test: Puccinia recondita f. sp. tritici / wheat / leaf disc curative (brown rust); type: in vivo; details: foliar, 200 ppm in the applied formulation, wheat leaf segments, curative (applied 1 day after inoculation), assessed 6 to 8 days after application, read-out: disease control compared to untreated control leaf disks
Summary of the method: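 Wheat cv. Kanzler leaf segments on agar were inoculated with spores, kept dark at 19° C, 75% RH, then sprayed with diluted formulated compound 1 day after inoculation (curative). Incubation continued at 19° C, 75% RH, 12 h light/12 h dark, with percent disease control versus untreated scored 6 to 8 days after application.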

[3] = test system: Phakopsora pachyrhizi; test: Phakopsora pachyrhizi / soybean / leaf disc preventative (Asian soybean rust); type: in vivo; details: foliar, 200 ppm in the applied formulation, soybean leaf disks, assessed 12 to 14 days after application, read-out: disease control compared to untreated control leaf disks
Summary of the method: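 Soybean leaf discs on water agar were sprayed with formulated compound diluted in water, then inoculated one day later with spore suspension on the lower leaf surface. Held 24-36 h dark at 20° C., 75% RH, then 12 h light/day; percent disease control versus untreated scored 12 to 14 days after application.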

[4] = test system: Glomerella lacenarium (Colletotrichum lacenarium); test: Glomerella lacenarium (Colletotrichum lacenarium) liquid culture / cucumber / preventative (anthracnose); type: cell-based; details: 20 ppm in the applied formulation, liquid culture in PDB, 24° C., 3 to 4 days after application, read-out: disease control (inhibition of growth, photometric) compared to untreated control
Summary of the method: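 Cryostored conidia in potato dextrose broth added to DMSO compound solution in microtiter plates, incubated at 24° C. Growth inhibition read photometrically 3 to 4 days after application, as percent control versus untreated check; compounds tested at 20 ppm.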

C=CCNC(=O)C(=O)N(Cc1ccc(-c2noc(C(F)(F)F)n2)cc1)OC [Compound 4.76, N-allyl-N′-methoxy-N′-[[4-[5-(trifluoromethyl)-1,2,4-oxadiazol-3-yl]phenyl]methyl] oxamide]
≥ 80%: pest or weed control at 200 ppm [1] | pest or weed control at 200 ppm [2] | pest or weed control at 200 ppm [3] | inhibition at 20 ppm [4]

CNC(=O)C(=O)NCc1ccc(-c2noc(C(F)(F)F)n2)cc1 [Compound 4.47, N-methyl-N′-[[4-[5-(trifluoromethyl)-1,2,4-oxadiazol-3-yl]phenyl]methyl] oxamide]
≥ 80%: pest or weed control at 200 ppm [1] | pest or weed control at 200 ppm [2] | pest or weed control at 200 ppm [3] | inhibition at 20 ppm [4]

CCCN(Cc1ccc(-c2noc(C(F)(F)F)n2)cc1)C(=O)C(=O)CC [Compound 1.31, 2-oxo-N-propyl-N-[[4-[5-(trifluoromethyl)-1,2,4-oxadiazol-3-yl]phenyl]methyl]butanamide]
≥ 80%: pest or weed control at 200 ppm [1] | pest or weed control at 200 ppm [2] | pest or weed control at 200 ppm [3] | inhibition at 20 ppm [4]

CCN(CC)C(=O)C(=O)NCc1ccc(-c2noc(C(F)(F)F)n2)cc1 [Compound 4.52, N′,N′-diethyl-N-[[4-[5-(trifluoromethyl)-1,2,4-oxadiazol-3-yl]phenyl]methyl] oxamide]
≥ 80%: pest or weed control at 200 ppm [1] | pest or weed control at 200 ppm [2] | pest or weed control at 200 ppm [3] | inhibition at 20 ppm [4]

CON(Cc1ccc(-c2noc(C(F)(F)F)n2)cc1)C(=O)C(=O)c1ccco1 [Compound 1.90, 2-(2-furyl)-N-methoxy-2-oxo-N-[[4-[5-(trifluoromethyl)-1,2,4-oxadiazol-3-yl]phenyl]methyl]acetamide]
≥ 80%: pest or weed control at 200 ppm [1] | pest or weed control at 200 ppm [2] | pest or weed control at 200 ppm [3] | inhibition at 20 ppm [4]

CC(C)(C)C(=O)C(=O)NCc1c(F)cc(-c2noc(C(F)(F)F)n2)cc1F [Compound 1.71, N-[[2,6-difluoro-4-[5-(trifluoromethyl)-1,2,4-oxadiazol-3-yl]phenyl]methyl]-3,3-dimethyl-2-oxo-butanamide]
≥ 80%: pest or weed control at 200 ppm [1] | pest or weed control at 200 ppm [2] | pest or weed control at 200 ppm [3] | inhibition at 20 ppm [4]

C=CCN(Cc1ccc(-c2noc(C(F)(F)F)n2)cc1)C(=O)C(=O)CCC [Compound 1.17, N-allyl-2-oxo-N-[[4-[5-(trifluoromethyl)-1,2,4-oxadiazol-3-yl]phenyl]methyl]pentanamide]
≥ 80%: pest or weed control at 200 ppm [1] | pest or weed control at 200 ppm [2] | pest or weed control at 200 ppm [3] | inhibition at 20 ppm [4]

CC(C)CC(=O)C(=O)NCc1ccc(-c2noc(C(F)(F)F)n2)c(F)c1 [Compound 1.43, N-[[3-fluoro-4-[5-(trifluoromethyl)-1,2,4-oxadiazol-3-yl]phenyl]methyl]-4-methyl-2-oxo-pentanamide]
≥ 80%: pest or weed control at 200 ppm [1] | pest or weed control at 200 ppm [2] | pest or weed control at 200 ppm [3] | inhibition at 20 ppm [4]

CCC(=O)C(=O)NCc1ccc(-c2noc(C(F)(F)F)n2)c(F)c1F [Compound 1.80, N-[[2,3-difluoro-4-[5-(trifluoromethyl)-1,2,4-oxadiazol-3-yl]phenyl]methyl]-2-oxo-butanamide]
≥ 80%: pest or weed control at 200 ppm [1] | pest or weed control at 200 ppm [2] | pest or weed control at 200 ppm [3] | inhibition at 20 ppm [4]

CON(Cc1ccc(-c2noc(C(F)(F)F)n2)cc1)C(=O)C(=O)c1ccccc1 [Compound 1.76, N-methoxy-2-oxo-phenyl-N-[[4-[5-(trifluoromethyl)-1,2,4-oxadiazol-3-yl]phenyl]methyl]acetamide]
≥ 80%: pest or weed control at 200 ppm [1] | pest or weed control at 200 ppm [2] | pest or weed control at 200 ppm [3] | inhibition at 20 ppm [4]

CCCN(Cc1ccc(-c2noc(C(F)(F)F)n2)cc1)C(=O)C(N)=O [Compound 4.88, N′-propyl-N′-[[4-[5-(trifluoromethyl)-1,2,4-oxadiazol-3-yl]phenyl]methyl] oxamide]
≥ 80%: pest or weed control at 200 ppm [1] | pest or weed control at 200 ppm [2] | pest or weed control at 200 ppm [3] | inhibition at 20 ppm [4]

CN(Cc1ccc(-c2noc(C(F)(F)F)n2)cc1)C(=O)C(=O)C1CC1 [Compound 1.94, 2-cyclopropyl-N-methyl-2-oxo-N-[[4-[5-(trifluoromethyl)-1,2,4-oxadiazol-3-yl]phenyl]methyl]acetamide]
≥ 80%: pest or weed control at 200 ppm [1] | pest or weed control at 200 ppm [2] | pest or weed control at 200 ppm [3] | inhibition at 20 ppm [4]

CCC(=O)C(=O)NCc1ccc(-c2noc(C(F)(F)F)n2)c(F)c1 [Compound 1.78, N-[[3-fluoro-4-[5-(trifluoromethyl)-1,2,4-oxadiazol-3-yl]phenyl]methyl]-2-oxo-butanamide]
≥ 80%: pest or weed control at 200 ppm [1] | pest or weed control at 200 ppm [2] | pest or weed control at 200 ppm [3] | inhibition at 20 ppm [4]

O=C(NCc1ccc(-c2noc(C(F)(F)F)n2)cc1F)C(=O)c1ccco1 [Compound 1.77, N-[[2-fluoro-4-[5-(trifluoromethyl)-1,2,4-oxadiazol-3-yl]phenyl]methyl]-2-(2-furyl)-2-oxo-acetamide]
≥ 80%: pest or weed control at 200 ppm [1] | pest or weed control at 200 ppm [2] | pest or weed control at 200 ppm [3] | inhibition at 20 ppm [4]

CONC(=O)C(=O)NCc1ccc(-c2noc(C(F)(F)F)n2)cc1 [Compound 4.58, N′-methoxy-N-[[4-[5-(trifluoromethyl)-1,2,4-oxadiazol-3-yl]phenyl]methyl] oxamide]
≥ 80%: pest or weed control at 200 ppm [1] | pest or weed control at 200 ppm [2] | pest or weed control at 200 ppm [3] | inhibition at 20 ppm [4]

CCN(C)C(=O)C(=O)N(Cc1ccc(-c2noc(C(F)(F)F)n2)cc1)OC [Compound 4.73, N-ethyl-N′-methoxy-N-methyl-N′-[[4-[5-(trifluoromethyl)-1,2,4-oxadiazol-3-yl]phenyl]methyl] oxamide]
≥ 80%: pest or weed control at 200 ppm [1] | pest or weed control at 200 ppm [2] | pest or weed control at 200 ppm [3] | inhibition at 20 ppm [4]

CON(C)C(=O)C(=O)N(Cc1ccc(-c2noc(C(F)(F)F)n2)cc1)C1CC1 [Compound 4.105, N′-cyclopropyl-N-methoxy-N-methyl-N′-[[4-[5-(trifluoromethyl)-1,2,4-oxadiazol-3-yl]phenyl]methyl] oxamide]
≥ 80%: pest or weed control at 200 ppm [1] | pest or weed control at 200 ppm [2] | pest or weed control at 200 ppm [3] | inhibition at 20 ppm [4]

CC(C)CC(=O)C(=O)NCc1ccc(-c2noc(C(F)(F)F)n2)cc1 [Compound 1.50, 4-methyl-2-oxo-N-[[4-[5-(trifluoromethyl)-1,2,4-oxadiazol-3-yl]phenyl]methyl]pentanamide]
≥ 80%: pest or weed control at 200 ppm [1] | pest or weed control at 200 ppm [2] | pest or weed control at 200 ppm [3] | inhibition at 20 ppm [4]

CC(C)N(Cc1ccc(-c2noc(C(F)(F)F)n2)cc1)C(=O)C(N)=O [Compound 4.89, N′-isopropyl-N′-[[4-[5-(trifluoromethyl)-1,2,4-oxadiazol-3-yl]phenyl]methyl] oxamide]
≥ 80%: pest or weed control at 200 ppm [1] | pest or weed control at 200 ppm [2] | pest or weed control at 200 ppm [3] | inhibition at 20 ppm [4]

CCCC(=O)C(=O)N(Cc1ccc(-c2noc(C(F)(F)F)n2)cc1)C1CC1 [Compound 1.4, N-cyclopropyl-2-oxo-N-[[4-[5-(trifluoromethyl)-1,2,4-oxadiazol-3-yl]phenyl]methyl]pentanamide]
≥ 80%: pest or weed control at 200 ppm [1] | pest or weed control at 200 ppm [2] | pest or weed control at 200 ppm [3] | inhibition at 20 ppm [4]

CCCC(=O)C(=O)N(C)Cc1ccc(-c2noc(C(F)(F)F)n2)cc1 [Compound 1.21, N-methyl-2-oxo-N-[[4-[5-(trifluoromethyl)-1,2,4-oxadiazol-3-yl]phenyl]methyl]pentanamide]
≥ 80%: pest or weed control at 200 ppm [1] | pest or weed control at 200 ppm [2] | pest or weed control at 200 ppm [3] | inhibition at 20 ppm [4]

NC(=O)C(=O)N(O)Cc1ccc(-c2noc(C(F)(F)F)n2)cc1 [Compound 4.91, N′-hydroxy-N′-[[4-[5-(trifluoromethyl)-1,2,4-oxadiazol-3-yl]phenyl]methyl] oxamide]
≥ 80%: pest or weed control at 200 ppm [1] | pest or weed control at 200 ppm [2] | pest or weed control at 200 ppm [3] | inhibition at 20 ppm [4]

O=C(NCc1ccc(-c2noc(C(F)(F)F)n2)c(F)c1)C(=O)c1ccco1 [Compound 1.79, N-[[3-fluoro-4-[5-(trifluoromethyl)-1,2,4-oxadiazol-3-yl]phenyl]methyl]-2-(2-furyl)-2-oxo-acetamide]
≥ 80%: pest or weed control at 200 ppm [1] | pest or weed control at 200 ppm [2] | pest or weed control at 200 ppm [3] | inhibition at 20 ppm [4]
